In test [1] the target is cholecystokininergic receptors of the central nervous system (guinea-pig brain cortex). As to the kind of experiment: Binding test, competition with [3H]BOC-[NLe28,31]CCK27-33 on guinea-pig brain cortex. The conditions noted are these: for Ki: [3H]BOC-[NLe28,31]CCK27-33 at 0.2 nM, guinea-pig brain cortex; for Selectivity factor: ratio given as drawing 11, matches KI pancreatic acini / KI cortex.
Method: (§1) The products of the invention are tested in competitive experiments with respect to the ligand [^3 H]BOC-[NLe^28,31 ]CCK27-33 on guinea-pig brain cortex and guinea-pig pancreatic acini. […] The [^3 H]BOC-[NLe^28,31 ]CCK27-33 was used at a concentration of 0.2 nM for the brain and 0.5 nM for the pancreas.

Test [2] concerns the target guinea-pig pancreatic acini. The test can be described thus: Test of release of pancreatic amylase. In kind it is cell-based. The following applies: acini incubated 30 minutes at 37° C.; mean of 3 independent experiments in triplicate; read-out: Secretion of pancreatic amylase by guinea-pig acini, agonist activity EC50. As for the experimental part:
J. Physiol., 235, E 743 (1978). The acini are incubated for 30 minutes at 37° C. in the presence of the test product at different doses, according to the method described by GARDNER and JACKSON, J. Physiol., 270, 439 (1977). The amylase activity is determined using the PHADEBAS reagent (Pharmacia) according to the method described by CESKA et al., Experientia, 25, 555 (1969).
The values shown in this table represent the mean of 3 independent experiments, each performed in triplicate.

The subject of another test is guinea-pig ileum. As to the kind of experiment: Test of contraction-inducing activity on guinea-pig ileum. The conditions noted are these: mean (±S.E.M.) of 3 independent experiments; read-out: Contraction-inducing activity on guinea-pig ileum, agonist activity EC50. The procedure:
This test is carried out according to the method described by HUTCHINSON et al., Eur. J. Pharmacol., 69, 87 (1981). Strips of guinea-pig ileum of the terminal portion are rapidly removed and attached in the cell of an isometric gauge containing 25 cm^3 of Tyrode's solution. The solution is maintained at 37° C. while a stream of a gas composed of 95% oxygen and 5% CO2 is passed through bubble by bubble. The test compounds are tested under the conditions described by RUIZ-GAYO et al., Peptides, 6, 415 (1985).
The values shown in this table for the agonist activity represent the mean (±S.E.M.) of 3 independent experiments.

For test [3], the target named is T1, peripheral cholecystokininergic receptors (guinea-pig pancreatic acini) (Cavia porcellus, UniProt Q63931).
T1 construct: on guinea-pig brain cortex and guinea-pig pancreatic acini; from tissue; host or cells: guinea-pig pancreatic acini
T1 sequence (Q63931 1-430): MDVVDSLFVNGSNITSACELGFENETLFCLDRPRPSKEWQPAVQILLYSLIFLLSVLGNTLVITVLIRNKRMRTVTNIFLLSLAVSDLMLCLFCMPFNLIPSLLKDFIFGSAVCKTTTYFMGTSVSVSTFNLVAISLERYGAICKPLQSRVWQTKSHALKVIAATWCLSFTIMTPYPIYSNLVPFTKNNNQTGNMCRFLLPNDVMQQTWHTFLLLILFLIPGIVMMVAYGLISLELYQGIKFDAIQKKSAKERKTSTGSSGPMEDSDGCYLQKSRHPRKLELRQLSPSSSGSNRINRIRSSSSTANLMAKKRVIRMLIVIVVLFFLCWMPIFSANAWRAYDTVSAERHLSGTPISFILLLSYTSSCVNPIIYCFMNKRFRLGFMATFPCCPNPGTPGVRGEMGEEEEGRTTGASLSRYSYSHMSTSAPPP
As to the kind of experiment: Binding test, competition with [3H]BOC-[NLe28,31]CCK27-33 on guinea-pig pancreatic acini. The following applies: [3H]BOC-[NLe28,31]CCK27-33 at 0.5 nM.
Method: as §1

Molecules are shown by their SMILES. Starred links: 1 amine or outer side, 2 acyl side, 3 side chain; linkers in the order of their positions; H or OH if unused. Positions of bridges follow the written chain, without caps; N, C: chain ends. Non-standard residues stand in square brackets, D forms with d. Residues, ends and D or L forms follow the SMILES beside them. *: point of attachment. X1 = CC(C)(C)OC(=O)N[C@H](CCC(=O)[*:1])C(=O)[*:2]; sY = N[C@@H](Cc1ccc(OS(=O)(=O)O)cc1)C(=O)O; Nle = CCCC[C@H](N)C(=O)O; Boc = CC(C)(C)OC(=O)*

For `CCCC[C@H](NC(=O)[C@H](Cc1c[nH]c2ccccc12)NC(=O)[C@H]1CCCCNC(=O)C[C@@H](NC(=O)OC(C)(C)C)C(=O)N[C@@H](Cc2ccc(OS(=O)(=O)O)cc2)C(=O)N[C@@H](CCCC)C(=O)N1)C(=O)N[C@@H](CC(=O)O)C(=O)N[C@@H](Cc1ccccc1)C(N)=O` [Example 5] (Boc-[dD][sY][Nle][dK]W[Nle]DF-NH2; lactam 1-4; N-terminus assumed), the affinity in test [1] corresponds to a Ki of 5.1 nM. The Selectivity factor in test [1] is listed as 179. Further, the EC50 – broadly, the concentration needed to bring the measured effect to its halfway point – in test [2] was less than 10000 nM; in the test with guinea-pig ileum it was greater than 10000 nM.
Regarding `CCCC[C@H](NC(=O)[C@H](Cc1c[nH]c2ccccc12)NC(=O)[C@H]1CCCCNC(=O)CC[C@@H](NC(=O)OC(C)(C)C)C(=O)N[C@@H](Cc2ccc(OS(=O)(=O)O)cc2)C(=O)N[C@@H](CCCC)C(=O)N1)C(=O)N[C@@H](CC(=O)O)C(=O)N[C@@H](Cc1ccccc1)C(N)=O` [Example 7] (Boc-[dE][sY][Nle][dK]W[Nle]DF-NH2; lactam 1-4; N-terminus assumed), in test [1], the inhibition constant (Ki) (usually a dissociation constant, usually derived from enzyme kinetics or from competition with a known ligand) came to 6.3 nM and the Selectivity factor stood at 160. In addition, in the test on guinea-pig ileum, the EC50 was greater than 10000 nM.
Regarding `CCCC[C@H](NC(=O)[C@H](Cc1c[nH]c2ccccc12)NC(=O)[C@H]1CCCCNC(=O)[C@H](NC(=O)OC(C)(C)C)CCC(=O)N[C@@H](Cc2ccc(O)cc2)C(=O)N[C@@H](CCCC)C(=O)N1)C(=O)N[C@@H](CC(=O)O)C(=O)N[C@@H](Cc1ccccc1)C(N)=O` [Example 15] (Y[Nle][dK]W[Nle]DF-NH2; linker N-3 via X1), the affinity in test [3], expressed as Ki, was 860 nM.
Consider `CCCC[C@H](NC(=O)[C@H](Cc1c[nH]c2ccccc12)NC(=O)[C@H]1CCCCNC(=O)[C@H](NC(=O)OC(C)(C)C)CCC(=O)N[C@@H](Cc2ccc(OS(=O)(=O)O)cc2)C(=O)N[C@@H](CCCC)C(=O)N1)C(=O)N[C@@H](CC(=O)O)C(=O)N[C@@H](Cc1ccccc1)C(N)=O` [Example 16] ([sY][Nle][dK]W[Nle]DF-NH2; linker N-3 via X1; C-terminus assumed), for which, in test [1], the affinity corresponds to a Ki of 0.49 nM and the Selectivity factor stood at 1970. Moreover, the EC50 in the test with guinea-pig ileum was greater than 10000 nM.
